Test results: patent US6407129B1, “Azole compounds, their production and their use” (Takeda Chemical Industries, Ltd., priority 1997, dated 2002)

Columns and labels:
Assay type in all cases: in vivo
[1] = tested on: Candida albicans TA; assay: Protective effect against experimental Candida albicans TA infection in mice, intravenous administration (Experiment 1); conditions: Crj:CDF1 female mice, compound in 5% glucose given intravenously immediately after infection, Reed and Muench from survival rates on day 7
Method: (§1) Method: Five-week-old Crj:CDF1 female mice were infected intravenously with minimum lethal dose of Candida albicans TA. The test compounds were dissolved in 5% glucose solution and were administered intravenously to the mice immediately after infection. Protective effects of the compounds were expressed as 50% effective dose (ED50) calculated using the method of Reed and Muench from survival rates on day 7 after infection.

[2] = tested on: Candida albicans TA; assay: Protective effect against experimental Candida albicans TA infection in mice, oral administration (Experiment 2); conditions: Crj:CDF1 female mice, i.v. infection, compound in 5% glucose given orally immediately after infection; Reed and Muench from survival rates on day 7
Method: as §1, with “administered orally” for “administered intravenously”

[3] = tested on: Candida albicans T.A.; assay: Protective effect at a single dose of 1.04 μmol/kg against experimental Candida albicans TA infection in mice (Experiment 3); conditions: n = 5 mice; for Mean survival day of the mice which died, i.v. / No. of survivors, i.v.: 1.04 μmol/kg i.v.; for Mean survival day of the mice which died, i.v. / Mean survival day of the mice which died, p.o.: mice which had died up to 7 days after infection; for No. of survivors, i.v. / No. of survivors, p.o.: survivors on day 7 after infection; for Mean survival day of the mice which died, p.o. / No. of survivors, p.o.: 1.04 μmol/kg p.o.
Method: Method: Five-week-old Crj:CDF1 female mice were infected intravenously with minimum lethal dose of Candida albicans T.A. The test compounds were dissolved in 5% glucose solution and were administered intravenously (i.v.) or orally (p.o.) to the mice at a dose of 1.04 μmol/kg immediately after infection. Protective effect of each compound were expressed as the number of survivors on day 7 after infection and the mean survival days of the mice which had died up to 7 days after infection.
The protective effect of the reference compound shown in figure (V) is included in Table 7. The reference compound was suspended in 0.5% sodium carboxymethyl cellulose and was administered orally to the mice at a dose of 1.04 μmol/kg immediately after infection.

Compound: 1-[(2R,3R)-2-(2,4-difluorophenyl)-2-hydroxy-3-[2-oxo-3-[4-(1H-1,2,3-triazol-1-yl)phenyl]-1-imidazolidinyl]butyl]-4-[(2,2-dimethylpropanoyloxy)methyl]-1H-1,2,4-triazolium chloride [Compound 1]
- ED50 i.v. [1]: 2.3 µmol/kg
- ED50 p.o. [2]: 2.9 µmol/kg

Compound: 1-[(2R,3R)-2-(2,4-difluorophenyl)-2-hydroxy-3-[2-oxo-3-[4-(1H-tetrazol-1-yl)phenyl]-1-imidazolidinyl]butyl]-4-(isopropoxycarbonyloxy)methyl-1H-1,2,4-triazolium chloride [Compound 18]
- Mean survival day of the mice which died, i.v. [3]: 5.5 days
- No. of survivors, i.v. [3]: 3
- Mean survival day of the mice which died, p.o. [3]: 4.5 days
- No. of survivors, p.o. [3]: 3

Compound: C[C@@H](N1CCN(c2ccc(-n3cnnn3)cc2)C1=O)[C@](O)(C[n+]1cn(COC(=O)C(C)(C)C)cn1)c1ccc(F)cc1F.[Cl-] [Compound 2, 1-[(2R,3R)-2-(2,4-difluorophenyl)-2-hydroxy-3-[2-oxo-3-[4-(1H-tetrazol-1-yl)phenyl]-1-imidazolidinyl]butyl]-4-[(2,2-dimethylpropanoyloxy)methyl]-1,2,4-triazolium chloride]
- ED50 i.v. [1]: 1.5 µmol/kg
- ED50 p.o. [2]: 1.8 µmol/kg

Compound: CC(=O)OC[n+]1cnn(C[C@](O)(c2ccc(F)cc2F)[C@@H](C)N2CCN(c3ccc(-n4cnnn4)cc3)C2=O)c1.[Br-] [Compound 11, 4-acetoxymethyl-1-[(2R,3R)-2-(2,4-difluorophenyl)-2-hydroxy-3-[2-oxo-3-[4-(1H-tetrazol-1-yl)phenyl]-1-imidazolidinyl]butyl]-1H-1,2,4-triazolium bromide]
- Mean survival day of the mice which died, i.v. [3]: 4.0 days
- No. of survivors, i.v. [3]: 2
- Mean survival day of the mice which died, p.o. [3]: 6.0 days
- No. of survivors, p.o. [3]: 3

Compound: CC(=O)OC[n+]1cnn(C[C@](O)(c2ccc(F)cc2F)[C@@H](C)N2CCN(c3ccc(-n4cnnn4)cc3)C2=O)c1.[Cl-] [Compound 12, 4-acetoxymethyl-1-[(2R,3R)-2-(2,4-difluorophenyl)-2-hydroxy-3-[2-oxo-3-[4-(1H-tetrazol-1-yl)phenyl]-1-imidazolidinyl]butyl]-1H-1,2,4-triazolium chloride]
- Mean survival day of the mice which died, i.v. [3]: 4.5 days
- No. of survivors, i.v. [3]: 3
- Mean survival day of the mice which died, p.o. [3]: 5.0 days
- No. of survivors, p.o. [3]: 4

Compound: CCC(=O)OC[n+]1cnn(C[C@](O)(c2ccc(F)cc2F)[C@@H](C)N2CCN(c3ccc(-n4cnnn4)cc3)C2=O)c1.[Cl-] [Compound 14, 1-[(2R,3R)-2-(2,4-difluorophenyl)-2-hydroxy-3-[2-oxo-3-[4-(1H-tetrazol-1-yl)phenyl]-1-imidazolidinyl]butyl]-4-propanoyloxymethyl-1H-1,2,4-triazolium chloride]
- Mean survival day of the mice which died, i.v. [3]: 4.5 days
- No. of survivors, i.v. [3]: 1
- Mean survival day of the mice which died, p.o. [3]: 6.0 days
- No. of survivors, p.o. [3]: 3

Compound: CCOC(=O)OC[n+]1cnn(C[C@](O)(c2ccc(F)cc2F)[C@@H](C)N2CCN(c3ccc(-n4cnnn4)cc3)C2=O)c1.[Cl-] [Compound 16, 1-[(2R,3R)-2-(2,4-difluorophenyl)-2-hydroxy-3-[2-oxo-3-[4-(1H-tetrazol-1-yl)phenyl]-1-imidazolidinyl]butyl]-4-ethoxycarbonyloxymethyl-1H-1,2,4-triazolium chloride]
- Mean survival day of the mice which died, i.v. [3]: 6.0 days
- No. of survivors, i.v. [3]: 4
- No. of survivors, p.o. [3]: 5

Compound: CC(N1CCN(c2ccc(-n3cnnn3)cc2)C1=O)C(O)(Cn1cncn1)c1ccc(F)cc1F (stereo not shown) [Reference compound (V), reference compound]
- Mean survival day of the mice which died, p.o. [3]: 4.3 days
- No. of survivors, p.o. [3]: 2
